Assay results reported in ChEMBL document CHEMBL3885861, “Open TG-GATES”.

Organism: Rattus norvegicus
Test: Open TG-GATES - Regimen: Single
Format: toxicity, organism-based, Sprague-Dawley
Set-up: regimen Single, gender Male, age 6 weeks
Conditions: in vivo, po, 1000 mg/kg, route gavage, dose level High; for APTT / Bas / Eos / Fbg / Hb / Ht / Lym / MCH / MCHC / MCV / Mono / Neu / PT / Plat / RBC / Ret / WBC: tissue Blood; for KIDNEY_L / KIDNEY_R / KIDNEY_TOTAL: tissue Kidney; for LIVER: tissue Liver; for A/G / ALP / ALT / AST / BUN / CRE / Ca / Cl / DBIL / GLC / IP / K / LDH / Na / PL / RALB / TBIL / TC / TG / TP / gamma-GTP: tissue Plasma

O=C(O)c1cc(/N=N/c2ccc(S(=O)(=O)Nc3ccccn3)cc2)ccc1O [SULFASALAZINE]
TERMINAL_BW (3 h): 210.6 g
APTT (3 h): 19.5 s
Bas (3 h): 0%
Eos (3 h): 1%
Fbg (3 h): 221.8 mg/dL
Hb (3 h): 13.4 g/dL
Ht (3 h): 39.6%
Lym (3 h): 72.2%
MCH (3 h): 21.2 pg
MCHC (3 h): 33.9%
MCV (3 h): 62.4 fL
Mono (3 h): 2.8%
Neu (3 h): 23.2%
PT (3 h): 12.7 s
Plat (3 h): 116.4 x10_4/uL
RBC (3 h): 633.8 x10_4/ul
Ret (3 h): 7%
WBC (3 h): 94.9 x10_2/uL
KIDNEY_L (3 h): 1 g
KIDNEY_R (3 h): 1 g
KIDNEY_TOTAL (3 h): 1.9 g
LIVER (3 h): 9.7 g
A/G (3 h): 1.5
ALP (3 h): 1059.6 IU/L
ALT (3 h): 39.4 IU/L
AST (3 h): 67.8 IU/L
BUN (3 h): 11.4 mg/dL
CRE (3 h): 0.4 mg/dL
Ca (3 h): 10.7 mg/dL
Cl (3 h): 102.4 meq/L
DBIL (3 h): 0.064 mg/dL
GLC (3 h): 196.6 mg/dL
IP (3 h): 9.4 mg/dL
K (3 h): 4 meq/L
LDH (3 h): 203.6 IU/L
Na (3 h): 139.6 meq/L
PL (3 h): 139.4 mg/dL
RALB (3 h): 3.4 g/dL
TBIL (3 h): 0.1 mg/dL
TC (3 h): 76 mg/dL
TG (3 h): 46.2 mg/dL
TP (3 h): 5.6 g/dL
gamma-GTP (3 h): 1 IU/L
TERMINAL_BW (6 h): 208.9 g
APTT (6 h): 18.8 s
Bas (6 h): 0%
Eos (6 h): 0.8%
Fbg (6 h): 226 mg/dL
Hb (6 h): 13.1 g/dL
Ht (6 h): 38.3%
Lym (6 h): 76.4%
MCH (6 h): 21.3 pg
MCHC (6 h): 34.2%
MCV (6 h): 62.2 fL
Mono (6 h): 2.2%
Neu (6 h): 19.2%
PT (6 h): 12.7 s
Plat (6 h): 120.4 x10_4/uL
RBC (6 h): 616.4 x10_4/ul
Ret (6 h): 7.3%
WBC (6 h): 73.5 x10_2/uL
KIDNEY_L (6 h): 0.9 g
KIDNEY_R (6 h): 1 g
KIDNEY_TOTAL (6 h): 1.9 g
LIVER (6 h): 9 g
A/G (6 h): 1.5
ALP (6 h): 928.2 IU/L
ALT (6 h): 31.4 IU/L
AST (6 h): 66.4 IU/L
BUN (6 h): 8.4 mg/dL
CRE (6 h): 0.4 mg/dL
Ca (6 h): 10.5 mg/dL
Cl (6 h): 103.2 meq/L
DBIL (6 h): 0.066 mg/dL
GLC (6 h): 190.8 mg/dL
IP (6 h): 9.4 mg/dL
K (6 h): 4 meq/L
LDH (6 h): 207.8 IU/L
Na (6 h): 141.4 meq/L
PL (6 h): 144 mg/dL
RALB (6 h): 3.4 g/dL
TBIL (6 h): 0.1 mg/dL
TC (6 h): 75.4 mg/dL
TG (6 h): 59 mg/dL
TP (6 h): 5.6 g/dL
gamma-GTP (6 h): 1 IU/L
TERMINAL_BW (9 h): 206.9 g
APTT (9 h): 18.8 s
Bas (9 h): 0%
Eos (9 h): 0.8%
Fbg (9 h): 222.2 mg/dL
Hb (9 h): 13.2 g/dL
Ht (9 h): 38.4%
Lym (9 h): 72.2%
MCH (9 h): 21.9 pg
MCHC (9 h): 34.4%
MCV (9 h): 63.7 fL
Mono (9 h): 1.2%
Neu (9 h): 25.2%
PT (9 h): 12.8 s
Plat (9 h): 110.1 x10_4/uL
RBC (9 h): 603.4 x10_4/ul
Ret (9 h): 7.2%
WBC (9 h): 68.2 x10_2/uL
KIDNEY_L (9 h): 0.9 g
KIDNEY_R (9 h): 1 g
KIDNEY_TOTAL (9 h): 1.9 g
LIVER (9 h): 8 g
A/G (9 h): 1.5
ALP (9 h): 772.2 IU/L
ALT (9 h): 31.4 IU/L
AST (9 h): 67.4 IU/L
BUN (9 h): 8.6 mg/dL
CRE (9 h): 0.4 mg/dL
Ca (9 h): 10.4 mg/dL
Cl (9 h): 103.2 meq/L
DBIL (9 h): 0.06 mg/dL
GLC (9 h): 210.6 mg/dL
IP (9 h): 8.6 mg/dL
K (9 h): 3.5 meq/L
LDH (9 h): 195.4 IU/L
Na (9 h): 141.4 meq/L
PL (9 h): 137.2 mg/dL
RALB (9 h): 3.5 g/dL
TBIL (9 h): 0.1 mg/dL
TC (9 h): 72.6 mg/dL
TG (9 h): 23 mg/dL
TP (9 h): 5.8 g/dL
gamma-GTP (9 h): 1.4 IU/L
TERMINAL_BW (24 h): 214 g
APTT (24 h): 17.5 s
Bas (24 h): 0%
Eos (24 h): 0.8%
Fbg (24 h): 216.2 mg/dL
Hb (24 h): 13.5 g/dL
Ht (24 h): 39.4%
Lym (24 h): 82.6%
MCH (24 h): 21.7 pg
MCHC (24 h): 34.4%
MCV (24 h): 63 fL
Mono (24 h): 2.4%
Neu (24 h): 13%
PT (24 h): 13.2 s
Plat (24 h): 135.4 x10_4/uL
RBC (24 h): 624 x10_4/ul
Ret (24 h): 6.2%
WBC (24 h): 85.9 x10_2/uL
KIDNEY_L (24 h): 1 g
KIDNEY_R (24 h): 1 g
KIDNEY_TOTAL (24 h): 1.9 g
LIVER (24 h): 8.6 g
A/G (24 h): 1.5
ALP (24 h): 925.2 IU/L
ALT (24 h): 40.6 IU/L
AST (24 h): 69.8 IU/L
BUN (24 h): 13.8 mg/dL
CRE (24 h): 0.4 mg/dL
Ca (24 h): 10.7 mg/dL
Cl (24 h): 100.6 meq/L
DBIL (24 h): 0.076 mg/dL
GLC (24 h): 191 mg/dL
IP (24 h): 8.8 mg/dL
K (24 h): 3.8 meq/L
LDH (24 h): 232 IU/L
Na (24 h): 139.6 meq/L
PL (24 h): 142.4 mg/dL
RALB (24 h): 3.4 g/dL
TBIL (24 h): 0.1 mg/dL
TC (24 h): 79.8 mg/dL
TG (24 h): 52.8 mg/dL
TP (24 h): 5.7 g/dL
gamma-GTP (24 h): 1 IU/L
